One assay deals with T1, DLK (Homo sapiens, UniProt Q12852).
T1 construct: 10 nM DLK, catalytic domain, Carna Biosiences; purchased Carna Biosciences ('Carna Biosiences' [sic])
T1 sequence (Q12852 125-366 limits assumed): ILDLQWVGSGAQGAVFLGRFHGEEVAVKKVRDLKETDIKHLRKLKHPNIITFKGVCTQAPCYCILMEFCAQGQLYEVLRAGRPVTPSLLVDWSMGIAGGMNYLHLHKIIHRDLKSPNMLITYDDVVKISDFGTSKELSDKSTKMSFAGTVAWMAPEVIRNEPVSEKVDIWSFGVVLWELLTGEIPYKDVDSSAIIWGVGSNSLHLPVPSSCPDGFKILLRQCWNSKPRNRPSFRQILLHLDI
As to the kind of experiment: DLK biochemical assay (TR-FRET, MKK7 phosphorylation). The settings on record: DLK catalytic domain, MKK7 substrate, 60 μM ATP. The gist of the method: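 TR-FRET read-out (ratio of 665 nm acceptor to Eu donor channel) tracks MKK7 T275/S277 phosphorylation by DLK, using Eu-labelled anti-phospho-MKK7 and XL665-labelled anti-His on His-MKK7. Reactions were stopped and detected in pH 7.5 Tris buffer containing 100 mM EDTA, 100 mM NaCl, 200 mM KF and 0.01% Tween 20.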

For another assay, the target named is T2, LZK (Homo sapiens, UniProt O43283).
T2 construct: 10 nM LZK, catalytic domain, Carna Biosiences in assay buffer; purchased Carna Biosciences ('Carna Biosiences' [sic])
T2 sequence (O43283 168-409 limits assumed): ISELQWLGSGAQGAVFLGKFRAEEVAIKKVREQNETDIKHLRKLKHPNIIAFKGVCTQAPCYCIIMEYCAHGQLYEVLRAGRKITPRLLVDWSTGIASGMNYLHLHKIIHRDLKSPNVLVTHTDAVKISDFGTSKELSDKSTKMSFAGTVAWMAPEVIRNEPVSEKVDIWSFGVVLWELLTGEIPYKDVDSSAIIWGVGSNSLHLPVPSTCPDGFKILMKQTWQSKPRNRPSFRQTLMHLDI
As to the kind of experiment: LZK biochemical assay (TR-FRET, MKK7 phosphorylation). Particulars: LZK catalytic domain, MKK7 substrate, 15 μM ATP.

For the compound `CC(C)C(c1ccc(C(F)(F)F)nc1)n1cc(-c2cc(C(=O)N[C@H]3CCOC3)n3nc(N)nc3c2)cn1` (single isomer, unassigned) [Example I-182], the values for the IC50 at DLK and on LZK were 0.3 nM and 1.2 nM, respectively.

As to `CCC(c1ccc(OCC(F)(F)F)nc1)n1cc(-c2cc(C(=O)N[C@@H](C)CC)c3nc(N)nn3c2)cn1` (single isomer, unassigned) [Example I-87], the IC50 came out at 1.3 nM at DLK and 16 nM against LZK.

`CC(C)C(c1cncc(Cl)c1)n1cc(-c2cc(C(=O)NC(C)(C)CO)c3nc(N)nn3c2)cn1` (single isomer, unassigned) [Example I-174, 2-Amino-6-{1-[1-(5-chloropyridin-3-yl)-2-methylpropyl]-1H-pyrazol-4-yl}-N-(1-hydroxy-2-methylpropan-2-yl)[1,2,4]triazolo[1,5-a]pyridine-8-carboxamide]: the IC50 against DLK stood at 62 nM; at LZK, 690 nM.

With `CC(CF)NC(=O)c1cc(-c2cnn(C(c3ccccc3)C(C)C)c2)cn2nc(N)nc12` (single isomer, unassigned) [Example I-141, 2-Amino-N-(1-fluoropropan-2-yl)-6-[1-(2-methyl-1-phenylpropyl)-1H-pyrazol-4-yl][1,2,4]triazolo[1,5-a]pyridine-8-carboxamide], the IC50 amounted to 26 nM at DLK and 355 nM on LZK.

With `CC[C@H](C)NC(=O)c1cc(-c2cnn(C(c3ccccc3)C3CCOCC3)c2)cc2nc(N)nn12` (single isomer, unassigned) [Example I-53], the IC50 at DLK was 11 nM; at LZK, 24 nM.

As for `CC[C@H](C)NC(=O)c1cc(-c2cnn(C3CCN(C(C)C)CC3)c2)cn2nc(N)nc12` (single isomer, unassigned) [Example I-7], the IC50 against DLK was found to be 32 nM; on LZK, 3.8 nM.

On to `CC[C@H](C)NC(=O)c1cc(-c2cnn(C(c3ccc(C(F)(F)F)nc3)C(C)C)c2)cc2nc(N)nn12` (mixture of isomers) [Example I-104, 2-Amino-N-[(2S)-butan-2-yl]-7-(1-{2-methyl-1-[6-(trifluoromethyl)pyridin-3-yl]propyl}-1H-pyrazol-4-yl)[1,2,4]triazolo[1,5-a]pyridine-5-carboxamide], for which the IC50 on DLK was determined as 1.3 nM; against LZK it was 2.9 nM.

Take `CC[C@H](C)NC(=O)c1cc(-c2cnn(C(c3ccc(C(F)(F)F)nc3)C3CCN(C(=O)OC(C)(C)C)CC3)c2)cn2nc(N)nc12` (mixture of isomers) [Example I-79, tert-Butyl 4-{(4-{2-amino-8-[(2S)-butan-2-ylcarbamoyl][1,2,4]triazolo[1,5-a]pyridin-6-yl}-1H-pyrazol-1-yl)[6-(trifluoromethyl)pyridin-3-yl]methyl}piperidine-1-carboxylate]: the values for the IC50 on DLK and against LZK were 0.8 nM and 1.4 nM, respectively.

As for `CC[C@H](C)NC(=O)c1cc(-c2cnn(C3CN(Cc4ccccc4)C3)c2)cn2nc(N)nc12` [Example I-5], the IC50 on DLK turned out to be 55 nM; on LZK, 15 nM.

On to `CC(C)C(c1cncc(Cl)c1)n1cc(-c2cc(C(=O)NC(C)(C)CO)c3nc(N)nn3c2)cn1` (racemic) [Example I-172, 2-Amino-6-{1-[1-(5-chloropyridin-3-yl)-2-methylpropyl]-1H-pyrazol-4-yl}-N-(1-hydroxy-2-methylpropan-2-yl)[1,2,4]triazolo[1,5-a]pyridine-8-carboxamide], for which the IC50 was determined as 4 nM against DLK and 76 nM on LZK.

With `Nc1nc2cc(-c3cnn(C(c4ccc(C(F)(F)F)nc4)C4CCOCC4)c3)cc(C(=O)N[C@H]3CCOC3)n2n1` (mixture of isomers) [Example I-183, 2-Amino-N-[(3S)-tetrahydrofuran-3-yl]-7-(1-{tetrahydro-2H-pyran-4-yl[6-(trifluoromethyl)pyridin-3-yl]methyl}-1H-pyrazol-4-yl)[1,2,4]triazolo[1,5-a]pyridine-5-carboxamide], the IC50 on DLK was 1.7 nM; at LZK, 6 nM.

Turning to `Nc1nc2cc(-c3cnn(C4CCOCC4)c3)cc(C(=O)N[C@H]3CCOC3)n2n1` (single isomer, unassigned) [Example I-176], the results for the IC50 against DLK and on LZK were 220 nM and 210 nM, respectively.

As to `Nc1nc2cc(-c3cnn(C(c4ccc(C(F)(F)F)nc4)C4CCOCC4)c3)cc(C(=O)N[C@H]3CCOC3)n2n1` (single isomer, unassigned) [Example I-185], the IC50 on DLK stood at 0.8 nM; on LZK it was 2.3 nM.

`CC[C@H](C)NC(=O)c1cc(-c2cnn(C(c3ccc(C(F)(F)F)nc3)C3CC3)c2)cc2nc(N)nn12` (mixture of isomers) [Example I-107, 2-Amino-N-[(2S)-butan-2-yl]-7-(1-{cyclopropyl[6-(trifluoromethyl)pyridin-3-yl]methyl}-1H-pyrazol-4-yl)[1,2,4]triazolo[1,5-a]pyridine-5-carboxamide]: the IC50 turned out to be 1.7 nM against DLK and 3.5 nM against LZK.

Take `CC(C)C(c1cncc(Cl)c1)n1cc(-c2cc(C(=O)NC(C)(C)CO)c3nc(N)nn3c2)cn1` (single isomer, unassigned) [Example I-173, 2-Amino-6-{1-[1-(5-chloropyridin-3-yl)-2-methylpropyl]-1H-pyrazol-4-yl}-N-(1-hydroxy-2-methylpropan-2-yl)[1,2,4]triazolo[1,5-a]pyridine-8-carboxamide]: the IC50 worked out at 2 nM against DLK and 49 nM against LZK.

Take `COC[C@H](C)NC(=O)c1cc(-c2cnn(Cc3ccc(F)cc3)c2)cn2nc(N)nc12` (single isomer, unassigned) [Example I-135, 2-Amino-6-{1-[(4-fluorophenyl)methyl]-1H-pyrazol-4-yl}-N-[(25)-1-methoxypropan-2-yl][1,2,4]triazolo[1,5-a]pyridine-8-carboxamide]: the IC50 stood at 190 nM against DLK and 550 nM against LZK.

As to `CC[C@H](C)NC(=O)c1cc(-c2cnn(C(c3ccc(OCC(F)(F)F)nc3)C3CC3)c2)cc2nc(N)nn12` (single isomer, unassigned) [Example I-120], the IC50 against DLK was 44 nM; against LZK it was 140 nM.

In the case of `CC[C@H](C)NC(=O)c1cc(-c2cnn(C3CCOc4ccccc43)c2)cc2nc(N)nn12` (single isomer, unassigned) [Example I-17], the IC50 on DLK stood at 22 nM; at LZK it was 4.7 nM.

For `CC[C@H](C)NC(=O)c1cc(-c2cnn(C3CCCC3)c2)cc2nc(N)nn12` (single isomer, unassigned) [Example I-12], the IC50 on DLK is 120 nM; against LZK, 70 nM.

Consider `CC[C@H](C)NC(=O)c1cc(-c2cnn(C(CC(F)(F)F)c3ccccc3)c2)cn2nc(N)nc12` (single isomer, unassigned) [Example I-38], for which the figures for the IC50 against DLK and against LZK were 1.3 nM and 91 nM, respectively.

For the compound `CC(CF)NC(=O)c1cc(-c2cnn(C(c3ccccc3)C(C)C)c2)cn2nc(N)nc12` (single isomer, unassigned) [Example I-140, 2-Amino-N-(1-fluoropropan-2-yl)-6-[1-(2-methyl-1-phenylpropyl)-1H-pyrazol-4-yl][1,2,4]triazolo[1,5-a]pyridine-8-carboxamide], the IC50 at DLK stood at 0.5 nM; at LZK it was 32 nM.

For `CC[C@H](C)NC(=O)c1cc(-c2cnn(C(c3ccc(C(F)(F)F)nc3)C(C)C)c2)cn2nc(N)nc12` (mixture of isomers) [Example I-73, 2-Amino-N-[(2S)-butan-2-yl]-6-(1-{2-methyl-1-[6-(trifluoromethyl)pyridin-3-yl]propyl}-1H-pyrazol-4-yl)[1,2,4]triazolo[1,5-a]pyridine-8-carboxamide], the results for the IC50 on DLK and on LZK were 1.6 nM and 5.8 nM, respectively.

On to `CC[C@H](C)NC(=O)c1cc(-c2cnn(C(c3ccccc3)C(C)C)c2)cc2nc(N)nn12` (single isomer, unassigned) [Example I-25], for which the IC50 against DLK was found to be 23 nM; at LZK it was 140 nM.

With `CC[C@H](C)NC(=O)c1cc(-c2cnn(C(c3ccc(OCC(F)(F)F)nc3)C(C)C)c2)cn2nc(N)nc12` (single isomer, unassigned) [Example I-90], the IC50 was found to be 3 nM on DLK and 34 nM at LZK.

Turning to `CC[C@H](C)NC(=O)c1cc(-c2cnn([C@@H](CC)c3ccc(C(F)F)nc3)c2)cc2nc(N)nn12` (single isomer, unassigned) [Example I-94], the IC50 at DLK turned out to be 1 nM; against LZK it was 1.9 nM.

Regarding `CC[C@H](C)NC(=O)c1cc(-c2cnn([C@H](c3ccc(C(F)(F)F)nc3)C3CC3)c2)cc2nc(N)nn12` (single isomer, unassigned) [Example I-109], the IC50 is 1.8 nM at DLK and 3.5 nM against LZK.

The values are drawn from US20230086702A1, “SUBSTITUTED 2-AMINO-PYRAZOLYL-[1,2,4]TRIAZOLO[1,5A]PYRIDINE DERIVATIVES AND USE THEREOF” (The Johns Hopkins University, priority 2019, published 2023).
